Experimental data reported in patent US9822373B2, “Mutant cells for protein secretion and lignocellulose degradation” (The Regents of the University of California, priority 2011, dated 2017).

Experiments:
[1] = tested on: Neurospora crassa; assay: Total Avicelase activity of bioreactor culture supernatant; format: cell-based; conditions: supernatant of the 24-hour induction time point
Experimental: Cellulase production was carried out in a 3.7 L bioreactor (BioEngineering AG) at an operating volume of 1 L. The bioreactor was equipped with one 48 mm Rushton impeller and four equally spaced baffles to provide adequate mixing. Impeller speed was controlled at 200 rpm for 8 hours to allow spore germination followed by 500 rpm for the remainder of the experiment. The temperature was maintained at 25° C., and medium pH was controlled at 5.5 using 40% phosphoric acid and 1:5 diluted ammonium hydroxide. The dissolved oxygen was maintained at a level greater than 20% of the saturation value of the medium by varying the aeration rate between 0.5 and 3 VVM in response to the dissolved oxygen tension. Minimal growth medium with 1% w/v sucrose as the sole carbon source (unless otherwise noted) was inoculated with 10^9 conidia. After 24 hours initial growth, cellulase production was induced with either cellobiose or Avicel® added to a final concentration of 0.2% w/v. […]
Sucrose, fructose, glucose and cellobiose were measured on a DIONEX ICS-3000 HPLC (Dionex Corp., Sunnyvale, Calif.) using a CarboPac PA20 Analytical Column (3×150 mm) and a CarboPac PA20 guard column (3×30 mm) at 30° C. […] Sugars were detected using PAD, Four-Potential Carbohydrate Waveform and Peaks were analyzed using the Chromeleon software package.

[2] = tested on: endoglucanase 2 (eg-2 / gh5-1, NCU00762); assay: Quantitative RT-PCR of eg-2/gh5-1 expression after 4 h induction with a carbon source; format: cell-based, Neurospora crassa
Experimental: Strains were inoculated at an OD595 equal to 0.05 in 50 ml Vogel's salts with 2% (wt/vol) sucrose in a 250 ml Erlenmeyer flask and grown under constant light at 200 rpm for 16 hours. The biomass was then spun at 4000 rpm for 10 minutes and washed in Vogel's twice to remove any excess sucrose. The biomass was then added to a new 50 ml culture with 2% (wt/vol) sucrose, cellobiose (Sigma) or Avicel® PH 101 (Avicel®). Cultures were induced for 4 hours under constant light at 200 rpm. The culture biomass was then harvested by filtration over a Whatman glass microfiber filter (GF/F) on a Buchner funnel and washed with 50 ml Vogel's, biomass was flash frozen in liquid Nitrogen and stored at −80° C.
Total RNA from frozen samples was isolated using Zirconia/Silica beads (0.2 g, 0.5 mm diameter; Biospec) and a Mini-Beadbeater-96 (Biospec) with 1 mL TRIzol reagent (Invitrogen) according to manufacturer's instructions. Total RNA was further purified by digestion with TURBO DNA-free (Ambion) and an RNeasy kit (Qiagen). RNA integrity was checked by Nanodrop and agarose gel electrophoresis.
Quantitative RT-PCR was performed using the EXPRESS One-Step SYBR GreenER Kit (Invitrogen) and the StepOnePlus Real-Time PCR System (Applied Biosystems). Reactions were performed in triplicate with a total reaction volume of 10 ul including 300 nM each forward and reverse primers and 75 ng template RNA. Data Analysis was performed by the StepOne Software (Applied Biosystems) using Relative Quantitation/Comparative CT (ΔΔCT). Data was normalized to the endogenous control actin with expression on sucrose as the reference sample. Error bars indicate a 95% confidence interval. The RT-PCR primers were used as described in (Tian et al., 2009).
Conidia from strains were inoculated at an OD595 equal to 0.05 in 50 ml Vogel's salts (45) with 2% w/v sucrose in a 250 ml Erlenmeyer flask and grown under constant light at 200 rpm for 16 hours. Biomass was then spun at 4200 rpm for 10 minutes and washed in Vogel's salts twice to remove any excess sucrose. Biomass was then added to a new flask containing 50 ml Vogel's salts supplemented with 1% w/v sucrose, 0.2% w/v cellobiose (Sigma) or 1% w/v Avicel® PH 101 (Sigma). Cultures were induced for 4 hrs under constant light at 200 rpm. The culture biomass was then harvested by filtration over a Whatman glass microfiber filter (GF/F) on a Buchner funnel and washed with 50 ml Vogel's salts. […] Three independent biological duplicates (flasks) were evaluated for each time point. […]
Quantitative RT-PCR was performed using the EXPRESS One-Step SYBR GreenER Kit (Invitrogen) and the StepOnePlus Real-Time PCR System (Applied Biosystems). […] Data Analysis was performed by the StepOne Software (Applied Biosystems) using the Relative Quantitation/Comparative CT (ΔΔCT) setting. […]

[3] = tested on: Neurospora crassa; assay: Secreted protein concentration in shake flask culture supernatant; format: cell-based; conditions: Δcre-1; time not stated
Experimental: Strains were inoculated at an OD595 equal to 0.05 in 100 ml Vogel's salts with 1% (wt/vol) sucrose in a 250 ml Erlenmeyer flask and grown under constant light at 200 rpm for 24 hours. Cultures were then induced with 2% sucrose, 2% cellobiose, 1% sucrose/1% cellobiose, or 1% sucrose/1% Avicel®. Cultures continued to grow under constant light at 200 rpm for 5 days with supernatant collected at 1, 2, 3, 4 and 5 day. The collected supernatant was filtered through a 0.2 μm PES filter to remove biomass before being stored at −20° C. until all samples were collected. To visualize the secreted proteins, 15 μl of unconcentrated supernatant was run on a Criterion 10% Tris-HCL polyacrylamide gel and stained with Thermo Scientific GelCode Blue Stain Reagent.

SMILES: O=C[C@H](O)[C@@H](O)[C@H](O[C@@H]1O[C@H](CO)[C@@H](O)[C@H](O)[C@H]1O)[C@H](O)CO [cellobiose]
- aggregate Avicelase activity, glucose equivalents ([1]; Δ3βG strain): 0.296 mg/mL
- aggregate Avicelase activity, glucose equivalents ([1]; Δ3βGΔcre strain): 0.424 mg/mL
- eg-2 relative expression compared to sucrose ([2]; WT strain, 2% carbon source, 4 h induction): no change
- eg-2 increase in relative expression over expression on sucrose ([2]; triple β-glucosidase mutant, 2% carbon source, 4 h induction): 2,200 fold
- increase in transcription of eg-2 above expression on sucrose in the same strain ([2]; Δcre-1 strain, 4 h induction (Example 1)): 80 fold
- induction of gh5-1 ([2]; Δcre-1 strain, shifted from sucrose to 0.2% cellobiose for 4 hrs): 500 fold
- cellulase secretion (secreted protein) [3]: 653 µg/mL
